Measured values: ChEMBL document CHEMBL4837236, “Polyketides with Anti-neuroinflammatory Activity from Theissenia cinerea” (J Nat Prod, 2021)

How the values were obtained:
BV-2 [1] = experiment: Cytotoxicity against mouse BV2 cells assessed as cell viability at 10 uM after 24 hrs by MTT assay; type: cell-based; details: bv-2, 24 h
BV-2 [2] = experiment: Antiinflammatory activity in mouse BV2 cells assessed as inhibition of LPS-induced NO-production by measuring NO level at 10 uM preincubated for 1 hr followed by LPS stimulation and measured after 24 hrs by microplate reader based colorimetric assay (reference value: 26.6 +/- 8.1 uM); type: functional
BV-2 [3] = experiment: Antiinflammatory activity in mouse BV2 cells assessed as inhibition of LPS-induced NO-production preincubated for 1 hr followed by LPS stimulation and measured after 24 hrs by microplate reader based colorimetric assay; type: functional, cell-based; details: for inhibition: time 25.0 hrs

SMILES | Activity (BV-2 [1]) | NO level (BV-2 [2]) [µM] | IC50 (BV-2 [3]) [µM] | inhibition (BV-2 [3])
CCC/C=C/C1=C(CO)[C@@H](O)[C@@H]2O[C@@H]2[C@@H]1O | Non-Toxic | 24.3 | – | –
C[C@@H]1OC(=O)c2c(O)ccc(O)c2[C@@H]1O | Non-Toxic | 28.9 | – | –
COc1cc(O)c2c(c1)[C@H](O)[C@@]1(CO)O[C@@]1(CO)C2=O | Non-Toxic | 10.5 | 5 | Dose-Dependent Effect
CC(O)C/C=C/[C@H](O)[C@H](O)/C=C/c1cccc(O)c1CO (some centres undefined) | Non-Toxic | 26.6 | – | –
C/C=C/[C@@H]1O[C@@H]2[C@@H](C)OC(=O)[C@]2(O)C[C@H]1O | Non-Toxic | 25.5 | – | –
COc1cc(O)c2c(c1)[C@H](O)[C@]13CO[C@H](O)[C@]1(O3)C2=O | Non-Toxic | 2.6 | 3.2 | Dose-Dependent Effect
COc1cc(/C=C/C(=O)CC(=O)/C=C/c2ccc(O)c(OC)c2)ccc1O [CURCUMIN] | – | 5.5 | 3 | –
C/C=C/[C@@H]1O[C@H]2C(=C[C@H]1O)C(=O)O[C@@H]2C | Non-Toxic | 1.9 | 1.1 | –
C/C=C/[C@H]1O[C@@H]2C(=C[C@H]1O)C(=O)O[C@@H]2C | Non-Toxic | 2.2 | 4.5 | –
